Laboratory results taken from publication PMC9554301, “Rapid modeling of experimental molecular kinetics with simple electronic circuits instead of with complex differential equations” (Frontiers in Bioengineering and Biotechnology, 2022).

Key:
[1] = target: T1, beta-galactosidase (Escherichia coli, UniProt P00722); assay: product-feedback inhibition of ONPG hydrolysis, absorbance at […] nm; assay type: biochemical
T1 construct: gene lacZ

[2] = target: T1, beta-galactosidase; assay: hydrolysis kinetics (Km), absorbance of 2-nitrophenol at […] nm; assay type: biochemical
[3] = target: T1, beta-galactosidase; assay: ONPG hydrolysis absorbance assay at […] nm, Lineweaver-Burk; assay type: biochemical
[4] = substrate: CCO; assay: ethanol oxidation kinetics (Km), NADH absorbance, Lineweaver-Burk; assay type: biochemical, Saccharomyces cerevisiae; conditions: NAD+ binds the E-NAD complex (ordered Bi-Bi)

T1 sequence (P00722 2-1024): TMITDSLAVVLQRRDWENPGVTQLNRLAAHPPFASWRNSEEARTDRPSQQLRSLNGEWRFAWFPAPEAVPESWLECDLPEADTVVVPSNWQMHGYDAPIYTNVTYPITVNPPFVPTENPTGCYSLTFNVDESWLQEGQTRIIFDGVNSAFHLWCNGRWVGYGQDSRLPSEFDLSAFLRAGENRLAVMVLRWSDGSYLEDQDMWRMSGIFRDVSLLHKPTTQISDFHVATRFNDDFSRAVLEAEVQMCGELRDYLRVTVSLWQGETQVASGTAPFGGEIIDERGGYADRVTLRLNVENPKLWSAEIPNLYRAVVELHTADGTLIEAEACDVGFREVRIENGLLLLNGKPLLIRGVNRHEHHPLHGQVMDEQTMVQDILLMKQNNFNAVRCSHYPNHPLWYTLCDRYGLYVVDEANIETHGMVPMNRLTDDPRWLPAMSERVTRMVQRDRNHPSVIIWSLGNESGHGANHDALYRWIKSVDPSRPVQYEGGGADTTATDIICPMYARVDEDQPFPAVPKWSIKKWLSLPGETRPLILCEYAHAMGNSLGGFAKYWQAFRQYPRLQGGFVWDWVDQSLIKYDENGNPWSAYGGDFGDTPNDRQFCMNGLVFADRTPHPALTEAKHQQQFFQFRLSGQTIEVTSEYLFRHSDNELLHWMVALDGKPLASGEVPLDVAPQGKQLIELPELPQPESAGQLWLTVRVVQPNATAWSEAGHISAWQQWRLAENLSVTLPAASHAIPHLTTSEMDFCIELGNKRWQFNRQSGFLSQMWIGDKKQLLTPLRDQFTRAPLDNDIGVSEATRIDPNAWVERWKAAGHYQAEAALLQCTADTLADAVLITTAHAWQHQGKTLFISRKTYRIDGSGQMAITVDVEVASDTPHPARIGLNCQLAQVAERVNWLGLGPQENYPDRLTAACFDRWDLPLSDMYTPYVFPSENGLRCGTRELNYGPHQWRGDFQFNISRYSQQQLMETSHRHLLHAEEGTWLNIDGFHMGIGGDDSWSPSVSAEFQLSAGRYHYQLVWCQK

Molecule: OC[C@H]1OC(O)[C@H](O)[C@@H](O)[C@H]1O (stereo partly shown) [Gal, galactose]
- Ki [1]: 13.7 mM

Molecule: O=[N+]([O-])c1ccccc1O[C@@H]1O[C@H](CO)[C@H](O)[C@H](O)[C@H]1O [ONPG, o-nitrophenyl-β-D-galactopyranoside]
- Km [2]: 167 µM

Molecule: OC[C@H]1O[C@@H](SCCc2ccccc2)[C@H](O)[C@@H](O)[C@H]1O [PETG, phenylethyl beta-D-thiogalactopyranoside]
- Ki [3]: 0.00233 mM

B1: alcohol dehydrogenase (Saccharomyces cerevisiae S288C) (protein)
chain: SIPETQKGVIFYESHGKLEYKDIPVPKPKANELLINVKYSGVCHTDLHAWHGDWPLPVKLPLVGGHEGAGVVVGMGENVKGWKIGDYAGIKWLNGSCMACEYCELGNESNCPHADLSGYTHDGSFQQYATADAVQAAHIPQGTDLAQVAPILCAGITVYKALKSANLMAGHWVAISGAAGGLGSLAVQYAKAMGYRVLGIDGGEGKEELFRSIGGEVFIDFTKEKDIVGAVLKATDGGAHGVINVSVSEAAIEASTRYVRANGTTVLVGMPAGAKCCSDVFNQVVKSISIVGSYVGNRADTREALDFFARGLVKSPIKVVGLSTLPEIYEKMEKGQIVGRYVVDTSK
notes: yeast alcohol dehydrogenase (cat# A7011)
- Km [4]: 14300 µM
